One may read the inhibition as the relative decrease from the control value, in per cent.

Series [1] is described as follows: Protection against UVB irradiation-induced cell damage in NHEK assessed as inhibition of PGE2 production at 2 uM pretreated for 24 hrs before UVB irradiation measured after 24 hrs by enzymatic immunoassay. The series is classed as functional. The note with it: Homo sapiens, light or radiation study.
A further series concerns Keratinocyte. Nature of the series: Protection against UVB irradiation-induced SV40-transformed human keratinocytes damage assessed as inhibition of PGE2 production at 30 uM pretreated for 24 hrs before UVB irradiation measured after 24 hrs by ELISA. It is filed as functional, cell-based. (In an ELISA, binding on a coated surface is turned into a signal by an enzyme label.)

A short description of series [2]: Protection against IL1-beta-induced cell damage in NHEK assessed as inhibition of PGE2 production at 0.1 uM pretreated for 24 hrs before IL1-beta challenge measured after 24 hrs by enzymatic immunoassay. The note with it: Homo sapiens. The series is classed as functional.
For the next series, the system named is Zone of skin. Nature of the series: Prodrug conversion in 3D restructured human skin model assessed as conversion of compound to dl-alpha-tocopherol at 2% after 4 hrs by HPLC analysis. The series is classed as ADME, tissue-based.
Series [3] is described as follows: (§1) Protection against t-BHP-induced cell damage in NHEK assessed as inhibition of PGE2 production at 2 uM pretreated for 24 hrs before t-BHP challenge measured after 24 hrs by enzymatic immunoassay. The series is classed as functional. The note with it: Homo sapiens.
The species named for series [4] is Homo sapiens. As to the kind of experiment: Protection against H2O2-induced cell damage in NHEK assessed as inhibition of PGE2 production at 0.5 to 2 uM after 24 hrs by enzymatic immunoassay. It is filed as functional.
Series [5] in a line: Protection against IL1-beta-induced cell damage in NHEK assessed as inhibition of PGE2 production at 2 uM pretreated for 24 hrs before IL1-beta challenge measured after 24 hrs by enzymatic immunoassay. The series is classed as functional. To be noted: Homo sapiens.
A short description of series [6]: Protection against H2O2-induced cell damage in NHEK assessed as inhibition of PGE2 production at 2 uM pretreated for 24 hrs before H2O2 challenge measured after 24 hrs by enzymatic immunoassay. It is filed as functional. The note with it: Homo sapiens.
Series [7] is described as follows: Protection against IL1-beta-induced cell damage in NHEK assessed as inhibition of PGE2 production at 0.5 uM pretreated for 24 hrs before IL1-beta challenge measured after 24 hrs by enzymatic immunoassay. It is filed as functional. The note with it: Homo sapiens.
The nature of series [8]: Protection against H2O2-induced cell damage in NHEK assessed as inhibition of PGE2 production at 0.5 to 2 uM pretreated for 24 hrs before H2O2 challenge measured after 24 hrs by enzymatic immunoassay. It is filed as functional, Homo sapiens.
The species entered for series [9] is Homo sapiens. The description is as §1. It is filed as functional.

Activity calls are given as the source filed them. The calls are words filed in the database; no cut-off is given here.

As to `Cc1ccc(S(=O)(=O)/C=C/C#N)cc1`, the inhibition at 2 µM in series [1] amounted to 9%.

In the case of `O=C1O[C@H]([C@@H](O)CO)C(O)=C1OP(=O)(O)O`, the inhibition result in the series with Keratinocyte was “inactive”.

For the compound `CC(=O)Oc1c(C)c(C)c2c(c1C)CC[C@@](C)(CCC[C@H](C)CCC[C@H](C)CCCC(C)C)O2` (racemic), in series [2], the inhibition at 0.1 µM came out at 38%. Besides, the Drug metabolism entry in the series with Zone of skin is given as “Active”. Also, the inhibition at 2 µM in [3] was found to be 77.4%; in series [5], 67%; in [6], 25%. Besides, the inhibition result in the series listed under Homo sapiens [4] is “inactive”. The inhibition at 0.5 µM in series [7] is 40%.

In the case of `CC1(C)[C@@H](O[C@H]2O[C@H](C(=O)[O-])[C@@H](O)[C@H](O)[C@H]2O[C@@H]2O[C@H](C(=O)[O-])[C@@H](O)[C@H](O)[C@H]2O)CC[C@]2(C)[C@H]3C(=O)C=C4[C@@H]5C[C@@](C)(C(=O)O)CC[C@]5(C)CC[C@@]4(C)[C@]3(C)CC[C@@H]12.[K+].[K+]` [GLYCYRRHIZINATE DIPOTASSIUM], the “inhibition (INH)” value in series [8] came out at 40%. For the same compound, the inhibition result in the series filed under Homo sapiens [9] and in the series filed under Homo sapiens [4] was “inactive” throughout. Further, the inhibition at 2 µM in series [5] came to 24%. Further, the inhibition at 0.5 µM in series [7] was 14%.

For `C[S+]([O-])c1ccc(-c2nc(-c3ccc(F)cc3)c(-c3ccncc3)[nH]2)cc1` (stereo unspecified) [SB-203580], in series [1], the inhibition at 2 µM is 73%.

Consider `Oc1c2ccccc2c2c3c(cccc13)N=N2` [SP-600125], for which the inhibition at 2 µM in series [1] turned out to be 33%.

These data come from ChEMBL document CHEMBL1921754, “Sodium dl-α-tocopheryl-6-O-phosphate inhibits PGE₂ production in keratinocytes induced by UVB, IL-1β and peroxidants” (Bioorg Med Chem, 2011).
